# Results as given in PubChem BioAssay AID330 (DTP/NCI, 2004).
# “And” between values parts separate entries of the source, which are not always exact repeats. Equal values may be shown once. Toxic doses and inconclusive results are not listed.
# System: P388 leukemia ip, CD2F1 mice, survival T/C
# Assay: NCI In Vivo Anticancer Drug Screen. Data for tumor model P388 Leukemia (intraperitoneal) in CD2F1 (CDF1) mice
# Conditions: endpoint: median survival time, higher = longer survival
# Summary of the method: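 Mice carrying the transplanted tumor received test compound or vehicle. Survival was recorded in each group, and the value is the treated-group measurement divided by that of the vehicle-treated control group.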
# [1] = dose: 12.5 mg/kg/injection, schedule: Q01DX009 (ip), vehicle: saline
# [2] = dose: 25.0 mg/kg/injection, schedule: Q01DX009 (ip), vehicle: saline
structure (smiles),measurement,setting,value
N#CCCC[n+]1cc2ccccc2c2ccccc21,T/C,"dose: 25.0 mg/kg/injection, schedule: Q01DX005 (ip), vehicle: saline",100 % of control
same,T/C,"dose: 50.0 mg/kg/injection, schedule: Q01DX005 (ip), vehicle: saline",101 % of control and 109 % of control
same,T/C,"dose: 100.0 mg/kg/injection, schedule: Q01DX005 (ip), vehicle: saline",105 % of control and 112 % of control
c1ccc2c(c1)Cc1ccnnc1-2,T/C,"dose: 50.0 mg/kg/injection, schedule: Q01DX005 (ip), vehicle: saline with Tween-80",103 % of control
same,T/C,"dose: 100.0 mg/kg/injection, schedule: Q01DX005 (ip), vehicle: saline with Tween-80",103 % of control
same,T/C,"dose: 200.0 mg/kg/injection, schedule: Q01DX005 (ip), vehicle: saline with Tween-80",92 % of control
NC(=S)N/N=C1/CCCC/C1=N/O,T/C,"dose: 60.0 mg/kg/injection, schedule: Q01DX005 (ip), vehicle: saline with Tween-80",100 % of control
same,T/C,"dose: 120.0 mg/kg/injection, schedule: Q01DX005 (ip), vehicle: saline with Tween-80",100 % of control
COc1cc(OC)c(NC(=O)C(Sc2nc(C)cc(C)c2C#N)c2ccccc2)cc1Cl (stereo unspecified),T/C,"dose: 12.5 mg/kg/injection, schedule: Q01DX005 (ip), vehicle: Klucel (hydroxypropylcellulose) (HPC)",89 % of control
same,T/C,"dose: 25.0 mg/kg/injection, schedule: Q01DX005 (ip), vehicle: Klucel (hydroxypropylcellulose) (HPC)",92 % of control and 93 % of control
same,T/C,"dose: 50.0 mg/kg/injection, schedule: Q01DX005 (ip), vehicle: Klucel (hydroxypropylcellulose) (HPC)",100 % of control and 93 % of control
same,T/C,"dose: 100.0 mg/kg/injection, schedule: Q01DX005 (ip), vehicle: Klucel (hydroxypropylcellulose) (HPC)",98 % of control
same,T/C,"dose: 200.0 mg/kg/injection, schedule: Q01DX005 (ip), vehicle: Klucel (hydroxypropylcellulose) (HPC)",87 % of control
CCSCCNC(=O)[C@@]1(O)[C@H](O)[C@]2(CC)C=CCN3CC[C@@]4(c5cc([C@@]6(OC(C)=O)C[C@H]7C=C(CC)CN(CCc8c6[nH]c6ccccc86)C7)c(OC)cc5N(C)[C@@H]14)[C@@H]32,T/C,"dose: 0.5 mg/kg/injection, schedule: Q01DX001 (ip), vehicle: water",118 % of control
same,T/C,"dose: 1.0 mg/kg/injection, schedule: Q01DX001 (ip), vehicle: water",118 % of control
same,T/C,"dose: 4.0 mg/kg/injection, schedule: Q01DX001 (ip), vehicle: water",165 % of control
same,T/C,"dose: 8.0 mg/kg/injection, schedule: Q01DX001 (ip), vehicle: water",174 % of control
[N-]=[N+]=CC(=O)CCCCC1=CCCC1=O,T/C,"dose: 31.75 mg/kg/injection, schedule: Q01DX001 (ip), vehicle: saline with Tween-80",103 % of control
same,T/C,"dose: 63.5 mg/kg/injection, schedule: Q01DX001 (ip), vehicle: saline with Tween-80",93 % of control
same,T/C,"dose: 127.0 mg/kg/injection, schedule: Q01DX001 (ip), vehicle: saline with Tween-80",94 % of control
O=P(Oc1cccc2ccccc12)(N1CC1)N1CC1,T/C,"dose: 6.25 mg/kg/injection, schedule: Q01DX009 (ip), vehicle: saline",90 % of control
same,T/C,[1],95 % of control
same,T/C,[2],100 % of control
same,T/C,"dose: 100.0 mg/kg/injection, schedule: Q01DX009 (ip), vehicle: saline with Tween-80",177 % of control
same,T/C,"dose: 200.0 mg/kg/injection, schedule: Q01DX009 (ip), vehicle: saline with Tween-80",95 % of control
NC(CCC(=O)NC(CSC(c1ccccc1)(c1ccccc1)c1ccccc1)C(=O)NCC(=O)O)C(=O)O (stereo unspecified),T/C,"dose: 60.0 mg/kg/injection, schedule: Q01DX005 (ip), vehicle: Klucel (hydroxypropylcellulose) (HPC)",101 % of control and 115 % of control
same,T/C,"dose: 120.0 mg/kg/injection, schedule: Q01DX005 (ip), vehicle: Klucel (hydroxypropylcellulose) (HPC)",101 % of control and 113 % of control
COc1ccc(S(=O)(=O)N(C)/N=C/C(=O)O)cc1,T/C,"dose: 12.5 mg/kg/injection, schedule: Q01DX005 (ip), vehicle: distilled water + Tween-80",100 % of control
same,T/C,"dose: 25.0 mg/kg/injection, schedule: Q01DX005 (ip), vehicle: distilled water + Tween-80",106 % of control
same,T/C,"dose: 50.0 mg/kg/injection, schedule: Q01DX005 (ip), vehicle: distilled water + Tween-80",106 % of control
same,T/C,"dose: 100.0 mg/kg/injection, schedule: Q01DX005 (ip), vehicle: distilled water + Tween-80",95 % of control
same,T/C,"dose: 200.0 mg/kg/injection, schedule: Q01DX005 (ip), vehicle: distilled water + Tween-80",97 % of control
same,T/C,"dose: 200.0 mg/kg/injection, schedule: Q01DX005 (ip), vehicle: water",106 % of control
same,T/C,"dose: 400.0 mg/kg/injection, schedule: Q01DX005 (ip), vehicle: water",102 % of control
OCC1OC(Oc2ccc3cc(Br)ccc3c2)C(O)C1O (stereo unspecified),T/C,"dose: 50.0 mg/kg/injection, schedule: Q01DX009 (ip), vehicle: Klucel (hydroxypropylcellulose) (HPC)",90 % of control
same,T/C,"dose: 100.0 mg/kg/injection, schedule: Q01DX009 (ip), vehicle: Klucel (hydroxypropylcellulose) (HPC)",99 % of control
same,T/C,"dose: 200.0 mg/kg/injection, schedule: Q01DX009 (ip), vehicle: Klucel (hydroxypropylcellulose) (HPC)",97 % of control
O=C1c2ccccc2C(=O)N1CCS(=O)(=O)O,T/C,[1],100 % of control
same,T/C,[2],104 % of control
same,T/C,"dose: 50.0 mg/kg/injection, schedule: Q01DX009 (ip), vehicle: saline",100 % of control
same,T/C,"dose: 100.0 mg/kg/injection, schedule: Q01DX009 (ip), vehicle: saline",98 % of control
